How the values were obtained:
[1] = biological target: T1, human TrxR1 Sec498Cys mutant enzyme (Homo sapiens, UniProt Q16881, U648C); test: DTNB reduction assay with recombinant mutant enzyme; type: biochemical
T1 sequence (Q16881 151-649 U648C): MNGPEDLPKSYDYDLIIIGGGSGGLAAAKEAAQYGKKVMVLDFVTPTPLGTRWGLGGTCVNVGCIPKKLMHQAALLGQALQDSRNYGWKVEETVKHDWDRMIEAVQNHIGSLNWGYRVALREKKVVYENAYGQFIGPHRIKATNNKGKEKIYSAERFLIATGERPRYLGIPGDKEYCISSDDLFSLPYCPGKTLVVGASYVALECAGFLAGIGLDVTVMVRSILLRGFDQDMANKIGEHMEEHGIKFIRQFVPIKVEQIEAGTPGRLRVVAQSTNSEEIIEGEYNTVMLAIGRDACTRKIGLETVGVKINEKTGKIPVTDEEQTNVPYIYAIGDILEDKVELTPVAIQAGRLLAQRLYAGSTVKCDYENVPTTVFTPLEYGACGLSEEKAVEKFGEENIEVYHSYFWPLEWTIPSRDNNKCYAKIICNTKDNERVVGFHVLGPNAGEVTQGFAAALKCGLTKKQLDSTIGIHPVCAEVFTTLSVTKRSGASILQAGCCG

[2] = biological target: T2, thioredoxin reductase 1 (TrxR1) (Rattus norvegicus, UniProt O89049); test: DTNB reduction assay with purified NADPH-reduced enzyme; type: biochemical
T2 sequence (O89049 1-499): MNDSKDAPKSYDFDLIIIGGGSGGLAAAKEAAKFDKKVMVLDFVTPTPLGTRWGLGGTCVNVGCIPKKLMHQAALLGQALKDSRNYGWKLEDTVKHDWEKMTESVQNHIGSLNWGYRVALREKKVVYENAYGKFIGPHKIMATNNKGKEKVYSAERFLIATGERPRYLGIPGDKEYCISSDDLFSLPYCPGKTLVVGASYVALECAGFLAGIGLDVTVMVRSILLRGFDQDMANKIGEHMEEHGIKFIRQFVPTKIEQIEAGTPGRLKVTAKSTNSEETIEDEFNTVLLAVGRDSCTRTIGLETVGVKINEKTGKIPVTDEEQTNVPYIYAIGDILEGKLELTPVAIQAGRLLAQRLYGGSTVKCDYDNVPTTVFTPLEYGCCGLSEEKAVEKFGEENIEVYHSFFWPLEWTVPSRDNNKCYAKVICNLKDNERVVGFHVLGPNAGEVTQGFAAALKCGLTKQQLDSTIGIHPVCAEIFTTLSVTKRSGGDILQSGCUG

Question: What does the source list for `CC(=O)N=C1C=CC(=O)C=C1` [NAPQI, N-acetyl-p-benzoquinone imine]?
Answer: IC50 [1]: 17 µM; IC50 [2]: 0.023 µM
